Data as given in patent US8178579B2, “Dioxanes and uses thereof” (President and Fellows of Harvard College, priority 2001, dated 2012).
“Also recorded” adds a separate entry of the source. Non-standard residues stand in square brackets, D forms with d. Residues, ends and D or L forms follow the SMILES beside them. Aoe = N[C@@H](CCCCCC(=O)[C@@H]1CO1)C(=O)O

Columns and labels:
[1] = tested on: A549 cells; experiment: mitotic abnormalities by immunofluorescence; assay type: cell-based, human; conditions: 18 h or 24 h treatment, TSA 10 μM in FIG. 42C
Procedure: Detection of acetylated α-tubulin and acetylated histones by immunofluorescence was performed as described in Example 6 above. For determining microtubule stability, A549 cells were treated as indicated, fixed in glutaraldehyde, and stained for acetylated α-tubulin and total α-tubulin in antibody dilution buffer (ADB, Tris-buffered saline (TBS), 0.15 M NaCl, 0.02 M Tris-Cl, pH 7.4, with 2% bovine serum albumin and 0.1% Triton-X 100). For cold-depolymerization, cells were incubated at 4° C. or 37° C. for an additional 90 minutes before fixation. For calcium depolymerization, cells were incubated at 37° C. for 10 minutes in a microtubule-stabilizing buffer (0.2% NP-40, 5 mM MgCl2, 2 mM EGTA, 2 M glycerol, 100 mM PIPES, pH 6.8) with and without the addition of CaCl2 (2 mM) before glutaraldehyde fixation. For co-localization experiments, biotubacin (50 μM) treated A549 cells were fixed in 3.7% formaldehyde in TBS and processed as for detecting acetylated α-tubulin (See Example 6 above) with biotubacin detected using streptavidin-TR (1:500). HDAC6 was detected using a rabbit polyclonal antibody (1:250-1:750; C.M.G., unpublished data) under the conditions used to detect acetylated α-tubulin (See Example 6 above). Filamentous actin in HT-1080 cells was detected using TR-conjugated phalloidin (1 μg/mL), and depolymerized actin using FITC-conjugated deoxyribonuclease (10 μg/mL), following fixation in 3.7% formaldehyde in TBS. p58 (1:100) in NIH-3T3 cells was detected after fixation in 3.7% formaldehyde in TBS. Images for these experiments were collected on a Zeiss LSM510 confocal scanning laser microscope at the appropriate wavelengths using the accompanying software and processed with Adobe Photoshop. Deconvoluted serial images of TSA and DMSO treated A549 cells were obtained by taking sections (8μ) on a Zeiss Axioskop 2 microscope using an AxioCam camera and the accompanying software. Rat hippocampal neuronal cultures were fixed at room temperature for 15 min in phosphate-buffered saline (PBS) containing 4% paraformaldehyde. […]

[2] = tested on: α-tubulin deacetylation; experiment: acetylated α-tubulin in cells (AcTubulin cytoblot, immunofluorescence, Western blot); assay type: cell-based, human; conditions: for effect on tubulin deacetylation / α-tubulin acetylation in cells: A549 (also BS-C-1) cells, tubacin/JCWII114, niltubacin/JCWII153 2 μM, TSA 100 nM-4 μM, library ~2-5 μM, 18 h
Procedure: (§1) A549 cells were seeded at a density of 4,000 cells/50 μl in DMEM+ in white tissue culture-treated 384-well plates (Nalge Nunc) using a Multidrop 384 liquid dispenser (Labsystems). Library small molecules were pinned twice (100-150 nl/pin) from ˜1 mM stock solutions (DMSO) and incubated for 18 hours. For the ITSA1+AcTubulin assay, ITSA1 (50 μM) was added four hours after pin-transfer of library molecules. Media was aspirated with a 16-channel wand. For the acetylated α-tubulin cytoblot (AcTubulin), 40 μl/well of fixation solution (3.7% formaldehyde (1:10 from 37% stock) in Tris-buffered saline (TBS, 0.15 M NaCl, 0.02 M Tris-Cl, pH 7.4) was added and plates incubated for twenty minutes at room temperature. After aspiration, 30 μl 100% methanol (−20° C.) was added and incubated for five minutes at room temperature. After aspirating and washing three times with 90 μl of antibody dilution buffer (ADB, TBS/2% bovine serum albumin, 0.1% TritonX-100) the wells were blocked for twenty minutes in ADB. After aspirating, 20 μl/well of ADB containing anti-acetylated α-tubulin antibody (mouse; 1:1000) and anti-mouse IgG horseradish peroxidase (HRP)-conjugated antibody (1:750) was added and incubated overnight (4° C.). For the anti-acetyl lysine cytoblot (AcLysine), 40 μl/well of fixation solution (95% ethanol/5% acetic acid, −20° C.) was added and plates incubated for five minutes at room temperature. Wells were aspirated, washed, and blocked in ADB as for the AcTubulin protocol. After aspirating, 20 μl/well of ADB containing anti-acetylated lysine (rabbit; 1:375) and anti-rabbit IgG-HRP conjugated antibody (1:750) was added and incubated overnight (4° C.). For the anti-acetylated histone H3 (AcHistH3) and anti-acetylated histone H4 (AcHistH4) cytoblots, cells were fixed, washed, and blocked in ADB as for the AcLysine cytoblot. After aspirating, 20 μl/well of ADB containing anti-acetylated histone H3 antibody (rabbit, 1:500) or anti-acetylated histone H4 antibody (rabbit, 1:500) was added and incubated for two hours at room temperature. Wells were aspirated and washed twice with 80 μl of ADB. After aspirating, 20 μl/well of ADB containing anti-rabbit IgG-HRP conjugated antibody (1:1000) was added and incubated for two hours (room temperature). For the AcTubulin and AcLysine assays, plates were washed three times with TBS before adding 20 μl/well of enhanced chemiluminescent (ECL) mixture. For the AcHistH3 and AcHistH4 assays, plates were washed three times with 80 μl TBS with 1% Triton X-100 and once with 80 μl TBS before adding 20 μl/well of ECL mixture. Plates were read on an Analyst plate reader (LJL Biosystems) with an integration time of 0.1 seconds.
(§2) 1,3-dioxanes from single polystyrene macrobeads were prepared as 1-2 mM stock solutions in DMSO as described [Hubbert, C., Guardiola, A., Shao, R., Kawaguchi, Y., Ito, A., Nixon, A., Yoshida, M., Wang, X. F., and Yao, T. P. (2002). HDAC6 is a microtubule-associated deacetylase. Nature 417, 455-458]. Bead decoding and structure determination were as described [See for example, Hubbert, C., Guardiola, A., Shao, R., Kawaguchi, Y., Ito, A., Nixon, A., Yoshida, M., Wang, X. F., and Yao, T. P. (2002). HDAC6 is a microtubule-associated deacetylase. Nature 417, 455-458; and Piperno, G., LeDizet, M., and Chang, X. J. (1987). Microtubules containing acetylated alpha-tubulin in mammalian cells in culture. J. Cell Biol. 104, 289-302]. Small molecules (˜2-5 μM) of interest were retested using a sample from the plate of stock solutions by fluorescence microscopy and comparison to the effects of trichostatin (300 nM to 1 μM).
(§3) A549 cells were seeded at a density of 50,000/200 μl in DMEM+ on the surface of glass coverslips on top of Parafilm in a 10 cm dish and allowed to attach overnight. For detection of acetylated α-tubulin, cells were permeabilized and fixed with 100 mM K-PIPES, pH 6.8, 10 mM EGTA, 1 mM MgCl2, 0.2% triton X-100, 0.2% glutaraldehyde for fifteen minutes. […]

[3] = molecular target: T1, HDAC6F (Homo sapiens, UniProt Q9UBN7); experiment: in vitro tubulin deacetylase (TDAC) assay, immunoprecipitated wild-type HDAC6F, MAP-stabilized tubulin; assay type: biochemical; conditions: TSA 300 nM or 1 μM, tubacin, niltubacin, trapoxin B 1 μM
T1 construct: made in house; host or cells: TAg Jurkat cells, transient transfection, anti-FLAG M2 immunoprecipitation
T1 sequence (Q9UBN7 1-1215): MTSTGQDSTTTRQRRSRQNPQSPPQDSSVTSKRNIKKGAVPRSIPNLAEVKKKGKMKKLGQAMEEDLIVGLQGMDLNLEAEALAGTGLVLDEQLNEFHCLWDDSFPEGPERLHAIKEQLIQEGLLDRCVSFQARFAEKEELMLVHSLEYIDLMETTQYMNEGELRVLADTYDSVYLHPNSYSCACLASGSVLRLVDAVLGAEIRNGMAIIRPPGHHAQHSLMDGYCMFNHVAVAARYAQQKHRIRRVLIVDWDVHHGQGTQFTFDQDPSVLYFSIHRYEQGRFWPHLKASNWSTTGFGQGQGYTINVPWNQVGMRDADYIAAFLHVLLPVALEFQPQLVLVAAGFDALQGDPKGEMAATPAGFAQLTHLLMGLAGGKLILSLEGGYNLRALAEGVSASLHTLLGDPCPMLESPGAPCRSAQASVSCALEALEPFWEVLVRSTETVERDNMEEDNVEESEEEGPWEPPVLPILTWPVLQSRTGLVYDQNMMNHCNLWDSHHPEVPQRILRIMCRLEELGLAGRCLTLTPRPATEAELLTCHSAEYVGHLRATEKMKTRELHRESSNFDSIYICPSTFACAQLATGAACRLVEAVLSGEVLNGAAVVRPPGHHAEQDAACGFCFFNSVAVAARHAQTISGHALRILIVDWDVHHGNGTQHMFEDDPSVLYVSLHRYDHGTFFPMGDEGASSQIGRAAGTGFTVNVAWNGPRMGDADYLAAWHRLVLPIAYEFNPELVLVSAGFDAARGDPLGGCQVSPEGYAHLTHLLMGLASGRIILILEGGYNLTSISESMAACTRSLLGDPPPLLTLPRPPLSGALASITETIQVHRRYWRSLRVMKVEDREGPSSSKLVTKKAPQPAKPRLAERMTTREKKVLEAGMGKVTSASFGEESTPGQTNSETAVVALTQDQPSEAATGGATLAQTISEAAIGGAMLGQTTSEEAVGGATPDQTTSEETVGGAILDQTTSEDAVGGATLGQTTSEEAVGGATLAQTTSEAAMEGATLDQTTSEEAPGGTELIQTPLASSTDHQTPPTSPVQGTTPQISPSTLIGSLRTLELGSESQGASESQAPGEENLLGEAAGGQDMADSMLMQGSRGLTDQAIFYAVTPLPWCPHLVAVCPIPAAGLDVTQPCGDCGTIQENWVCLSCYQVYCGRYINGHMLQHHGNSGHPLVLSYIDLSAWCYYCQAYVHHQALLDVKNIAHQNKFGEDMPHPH
Description: Tubulin and MAPs were isolated from bovine brain as described [See http://mitchison.med.harvard.edu/protocols/tubprep.html]. Whole brain and fractions from phosphocellulose chromatography were blotted for HDAC6 and acetylated α-tubulin. Cultured hippocampal neurons from dissociated 1-day old rat brains were transfected with an enhanced green fluorescent protein (EGFP)-actin construct at 4-5 days using the calcium phosphate method [E. N. Star, D. J. Kwiatkowski and V. N. Murthy, Nat. Neurosci. […] K. Miranti and M. E. Greenberg, J. Neurosci. […] Transfected cultures were allowed to grow for at least 48 h before the addition of experimental compounds.
[^3H]Acetate-incorporated histones were isolated from butyrate-treated HeLa cells as described [J. Taunton, C. […] Immunoprecipitates were incubated with acetylated histones and HDAC activity determined by scintillation counting as described [J. Taunton, C. […] TDAC assays were performed with immunoprecipitates using MAP-stabilized microtubules polymerized from MAP-rich tubulin fraction as described [C. […] Reactions were incubated (2 h) at 37° C., then incubated on ice (15 min).

[4] = tested on: histone deacetylation; experiment: acetylated lysine / acetylated histone in cells (AcLysine cytoblot, immunofluorescence, Western blot); assay type: cell-based, human; conditions: A549 (also BS-C-1) cells, tubacin, niltubacin 2 μM, histacin 20 μM, library ~2-5 μM, 18 h
Procedure: as §1, §2, §3

[5] = listed as carboxylic acid analogue of JCWII114

C[C@@H]1NC(=O)[C@H]2CCCN2C(=O)[C@H](CCCCCC(=O)[C@@H]2CO2)NC(=O)[C@@H](C)NC1=O [HC toxin, reference compound]
mitotic abnormalities [1]: caused a significant number of abnormal mitotic cells | effect on tubulin deacetylation / α-tubulin acetylation in cells [2]: have no effect upon α-tubulin acetylation levels; also recorded: no effect on tubulin acetylation

O=C(O)CCCCCCC(=O)Nc1ccc([C@@H]2OC(c3ccc(CO)cc3)C[C@H](CSc3nc(-c4ccccc4)c(-c4ccccc4)o3)O2)cc1 (stereo partly shown) [JCWII153]
inhibition of TDAC activity of wild-type HDAC6F [3]: did not; also recorded: not inhibited by the addition of niltubacin or trapoxin | effect on histone deacetylation / lysine or histone acetylation in cells [4]: inactivity; also recorded: had no effect on α-tubulin or histone acetylation | effect on histone deacetylation / lysine or histone acetylation in cells [4, 5]: did not affect histone or tubulin deacetylation | effect on tubulin deacetylation / α-tubulin acetylation in cells [2]: inactivity; also recorded: had no effect on α-tubulin or histone acetylation | effect on tubulin deacetylation / α-tubulin acetylation in cells [2, 5]: did not affect histone or tubulin deacetylation

O=C(CCCCCCC(=O)Nc1ccc(C2OC(CSc3nc(-c4ccccc4)c(-c4ccccc4)o3)CC(c3ccc(CO)cc3)O2)cc1)NO (stereo not shown) [JCWII169]
potency of inducing α-tubulin acetylation relative to tubacin ([2]; AcTubulin cytoblot (enantiotubacin), cells (biotubacin)): equally as potent as tubacin | selectivity as TDAC inhibitor relative to tubacin (fold less selective) ([2]; after re-synthesis and retesting, unpublished data): ~5 fold | potency and selectivity of the enantiomers JCWII114 and JCWII169 compared ([2]; immunofluorescence and Western blot, A549 cells, 5 h or 18 h): No significant difference in selectivity or potency

O=C1N[C@@H](Cc2ccccc2)C(=O)N2CCC[C@@H]2C(=O)N[C@@H](CCCCCC(=O)[C@@H]2CO2)C(=O)N[C@H]1Cc1ccccc1 [trapoxin, trapoxin B, reference compound] (cyclo(FF[dP][Aoe]))
inhibition of TDAC activity of wild-type HDAC6F [3]: not inhibited by the addition of niltubacin or trapoxin | inhibition of TDAC activity of wild-type HDAC6F ([3]; listed as trapoxin B): did not | effect on tubulin deacetylation / α-tubulin acetylation in cells [2]: have no effect upon α-tubulin acetylation levels
